Measured values: publication PMC5596636 (ACS chemical neuroscience, 2016)

Experiments:
mMC3R = mMC3R (Mus musculus, UniProt P33033); test: cAMP-based β-galactosidase reporter agonist assay in HEK293 cells, mMC3R; details: for mMC3R fold difference: EC50 of substituted peptide divided by EC50 of NDP-MSH, potency loss
mMC1R [1] = molecular target: T1, mMC1R (Mus musculus, UniProt Q01727); details: B16 murine melanoma cells; relative to α-MSH; cited from earlier work
mMC1R [2] = molecular target: T1, mMC1R; details: B16 murine melanoma cells; relative to α-MSH; cited from earlier work; remark: listed apart in the source
rMC3R = details: HEK293 cells expressing the rMC3R; relative to α-MSH; cited from earlier work
mMC1R [3] = molecular target: T1, mMC1R; test: cAMP-based β-galactosidase reporter agonist assay in HEK293 cells, mMC1R; details: potency loss
mMC4R = mMC4R (Mus musculus, UniProt P56450); test: cAMP-based β-galactosidase reporter agonist assay in HEK293 cells, mMC4R; details: potency loss
mMC5R = mMC5R (Mus musculus, UniProt P41149); test: cAMP-based β-galactosidase reporter agonist assay in HEK293 cells, mMC5R; details: potency loss
[4] = EC50 of substituted peptide divided by EC50 of α-MSH
[5] = EC50 of substituted peptide divided by EC50 of NDP-MSH

Sequence of mMC3R (P33033 whole entry): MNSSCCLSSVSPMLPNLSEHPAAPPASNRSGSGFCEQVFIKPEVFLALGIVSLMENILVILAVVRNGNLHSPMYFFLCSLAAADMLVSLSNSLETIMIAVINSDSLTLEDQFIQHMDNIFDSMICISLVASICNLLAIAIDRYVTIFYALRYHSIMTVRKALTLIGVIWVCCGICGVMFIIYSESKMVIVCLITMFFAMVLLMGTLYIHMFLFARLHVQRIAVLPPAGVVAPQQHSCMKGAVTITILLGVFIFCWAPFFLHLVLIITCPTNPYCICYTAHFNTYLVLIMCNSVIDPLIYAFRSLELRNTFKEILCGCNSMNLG
T1 sequence (Q01727 whole entry): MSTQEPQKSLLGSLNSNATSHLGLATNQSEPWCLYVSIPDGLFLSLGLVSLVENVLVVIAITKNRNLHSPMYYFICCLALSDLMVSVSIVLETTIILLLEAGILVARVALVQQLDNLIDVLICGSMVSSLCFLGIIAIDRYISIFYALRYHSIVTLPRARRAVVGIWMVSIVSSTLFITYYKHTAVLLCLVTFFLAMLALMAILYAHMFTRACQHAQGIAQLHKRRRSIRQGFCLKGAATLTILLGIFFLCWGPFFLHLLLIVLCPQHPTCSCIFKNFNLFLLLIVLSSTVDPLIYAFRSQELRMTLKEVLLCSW
Sequence of mMC4R (P56450 whole entry): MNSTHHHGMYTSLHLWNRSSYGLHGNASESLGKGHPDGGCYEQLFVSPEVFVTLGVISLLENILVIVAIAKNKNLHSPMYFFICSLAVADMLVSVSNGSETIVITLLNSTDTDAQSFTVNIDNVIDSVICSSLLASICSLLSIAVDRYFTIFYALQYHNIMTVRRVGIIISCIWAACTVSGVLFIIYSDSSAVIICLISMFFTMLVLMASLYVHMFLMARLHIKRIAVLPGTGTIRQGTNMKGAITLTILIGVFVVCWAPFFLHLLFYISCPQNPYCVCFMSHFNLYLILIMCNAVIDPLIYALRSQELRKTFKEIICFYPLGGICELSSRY
Sequence of mMC5R (P41149 whole entry): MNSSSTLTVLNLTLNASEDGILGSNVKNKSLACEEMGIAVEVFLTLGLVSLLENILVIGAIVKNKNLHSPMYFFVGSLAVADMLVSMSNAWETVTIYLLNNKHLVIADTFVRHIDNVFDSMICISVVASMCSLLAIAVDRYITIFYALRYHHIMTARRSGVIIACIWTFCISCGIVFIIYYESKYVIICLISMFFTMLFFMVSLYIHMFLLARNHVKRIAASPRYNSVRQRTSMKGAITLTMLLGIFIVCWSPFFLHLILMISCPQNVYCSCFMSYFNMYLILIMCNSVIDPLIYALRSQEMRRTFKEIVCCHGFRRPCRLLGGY

Row | Compound | EC50 (mMC3R) [nM] | mMC1R fold difference (mMC1R [3]; [5]) | mMC3R fold difference (mMC3R) | mMC4R fold difference (mMC4R; [5]) | mMC5R fold difference (mMC5R; [5]) | also measured
1 | CCCC[C@H](NC(=O)[C@H](CO)NC(=O)[C@H](Cc1ccc(O)cc1)NC(=O)[C@H](C)NC(C)=O)C(=O)N[C@@H](CCC(=O)O)C(=O)N[C@@H](Cc1c[nH]cn1)C(=O)N[C@H](Cc1ccccc1)C(=O)N[C@@H](CCCNC(=N)N)C(=O)N[C@@H](Cc1c[nH]c2ccccc12)C(=O)NCC(=O)N[C@@H](CCCCN)C(=O)N1CCC[C@H]1C(=O)N[C@H](C(N)=O)C(C)C [[Ala^1]NDP-MSH, Ac-Ala-Tyr-Ser-Nle-Glu-His-DPhe-Arg-Trp-Gly-Lys-Pro-Val-NH2] | 0.16 ± 0.017 |  |  |  |  | 
2 | CSCC[C@H](NC(=O)[C@H](CO)NC(=O)[C@H](Cc1ccc(O)cc1)NC(=O)[C@H](C)NC(C)=O)C(=O)N[C@@H](CCC(=O)O)C(=O)N[C@@H](Cc1c[nH]cn1)C(=O)N[C@@H](Cc1ccccc1)C(=O)N[C@@H](CCCNC(=N)N)C(=O)N[C@@H](Cc1c[nH]c2ccccc12)C(=O)NCC(=O)N[C@@H](CCCCN)C(=O)N1CCC[C@H]1C(=O)N[C@H](C(N)=O)C(C)C [[Ala^1]α-MSH] | 17.4 ± 10.4 |  |  |  |  | fold decreased binding affinity at the mMC1R (mMC1R [1]): did not affect; fold decreased tyrosinase potency at the mMC1R (mMC1R [2]): did not affect; fold decreased binding affinity at the rMC3R (rMC3R): did not affect; mMC1R fold difference (mMC1R [3]; [4]): 5 fold; mMC4R fold difference (mMC4R; [4]): no differences; mMC5R fold difference (mMC5R; [4]): no differences
3 | CCCC[C@H](NC(=O)[C@H](CO)NC(=O)[C@H](C)NC(=O)[C@H](CO)NC(C)=O)C(=O)N[C@@H](CCC(=O)O)C(=O)N[C@@H](Cc1c[nH]cn1)C(=O)N[C@H](Cc1ccccc1)C(=O)N[C@@H](CCCNC(=N)N)C(=O)N[C@@H](Cc1c[nH]c2ccccc12)C(=O)NCC(=O)N[C@@H](CCCCN)C(=O)N1CCC[C@H]1C(=O)N[C@H](C(N)=O)C(C)C [[Ala^2]NDP-MSH, Ac-Ser-Ala-Ser-Nle-Glu-His-DPhe-Arg-Trp-Gly-Lys-Pro-Val-NH2] | 0.22 ± 0.06 |  |  |  |  | 
4 | CSCC[C@H](NC(=O)[C@H](CO)NC(=O)[C@H](C)NC(=O)[C@H](CO)NC(C)=O)C(=O)N[C@@H](CCC(=O)O)C(=O)N[C@@H](Cc1c[nH]cn1)C(=O)N[C@@H](Cc1ccccc1)C(=O)N[C@@H](CCCNC(=N)N)C(=O)N[C@@H](Cc1c[nH]c2ccccc12)C(=O)NCC(=O)N[C@@H](CCCCN)C(=O)N1CCC[C@H]1C(=O)N[C@H](C(N)=O)C(C)C [[Ala^2]α-MSH] | 6.42 ± 2.56 |  |  |  |  | fold decreased binding affinity at the mMC1R (mMC1R [1]): equipotent; fold decreased tyrosinase potency at the mMC1R (mMC1R [2]): equipotent; fold decreased binding affinity at the rMC3R (rMC3R): 7 fold; mMC1R fold difference (mMC1R [3]; [4]): 7 fold; fold more potent at the mMC3R compared to α-MSH (mMC3R; increased potency relative to α-MSH): 4 fold
5 | CCCC[C@H](NC(=O)[C@H](C)NC(=O)[C@H](Cc1ccc(O)cc1)NC(=O)[C@H](CO)NC(C)=O)C(=O)N[C@@H](CCC(=O)O)C(=O)N[C@@H](Cc1c[nH]cn1)C(=O)N[C@H](Cc1ccccc1)C(=O)N[C@@H](CCCNC(=N)N)C(=O)N[C@@H](Cc1c[nH]c2ccccc12)C(=O)NCC(=O)N[C@@H](CCCCN)C(=O)N1CCC[C@H]1C(=O)N[C@H](C(N)=O)C(C)C [[Ala^3]NDP-MSH, Ac-Ser-Tyr-Ala-Nle-Glu-His-DPhe-Arg-Trp-Gly-Lys-Pro-Val-NH2] | 0.34 ± 0.08 |  |  |  |  | 
6 | CC(=O)N[C@@H](CO)C(=O)N[C@@H](Cc1ccc(O)cc1)C(=O)N[C@@H](CO)C(=O)N[C@@H](C)C(=O)N[C@@H](CCC(=O)O)C(=O)N[C@@H](Cc1c[nH]cn1)C(=O)N[C@H](Cc1ccccc1)C(=O)N[C@@H](CCCNC(=N)N)C(=O)N[C@@H](Cc1c[nH]c2ccccc12)C(=O)NCC(=O)N[C@@H](CCCCN)C(=O)N1CCC[C@H]1C(=O)N[C@H](C(N)=O)C(C)C [[Ala^4]NDP-MSH, Ac-Ser-Tyr-Ser-Ala-Glu-His-DPhe-Arg-Trp-Gly-Lys-Pro-Val-NH2] | 0.36 ± 0.04 | 5 fold | no differences | no differences | no differences | 

Continued, in another order:

Row | EC50 (mMC3R) [nM] | mMC1R fold difference (mMC1R [3]; [5]) | mMC3R fold difference (mMC3R) | mMC4R fold difference (mMC4R; [5]) | mMC5R fold difference (mMC5R; [5]) | Compound | also measured
7 | 260 ± 64 | 2350 fold | 1080 fold | 2370 fold | 180 fold | CCCC[C@H](NC(=O)[C@H](CO)NC(=O)[C@H](Cc1ccc(O)cc1)NC(=O)[C@H](CO)NC(C)=O)C(=O)N[C@@H](CCC(=O)O)C(=O)N[C@@H](Cc1c[nH]cn1)C(=O)N[C@@H](C)C(=O)N[C@@H](CCCNC(=N)N)C(=O)N[C@@H](Cc1c[nH]c2ccccc12)C(=O)NCC(=O)N[C@@H](CCCCN)C(=O)N1CCC[C@H]1C(=O)N[C@H](C(N)=O)C(C)C [[Ala^7]NDP-MSH] | 
8 | 0.13 ± 0.06 | unaltered | unaltered | unaltered | unaltered | CCCC[C@H](NC(=O)[C@H](CO)NC(=O)[C@H](Cc1ccc(O)cc1)NC(=O)[C@H](CO)NC(C)=O)C(=O)N[C@@H](CCC(=O)O)C(=O)N[C@@H](Cc1c[nH]cn1)C(=O)N[C@H](Cc1ccccc1)C(=O)N[C@@H](CCCNC(=N)N)C(=O)N[C@@H](Cc1c[nH]c2ccccc12)C(=O)N[C@@H](C)C(=O)N[C@@H](CCCCN)C(=O)N1CCC[C@H]1C(=O)N[C@H](C(N)=O)C(C)C [[Ala^10]NDP-MSH, Ac-Ser-Tyr-Ser-Nle-Glu-His-DPhe-Arg-Trp-Ala-Lys-Pro-Val-NH2] | 
9 | 33 ± 11 |  |  |  |  | CSCC[C@H](NC(=O)[C@H](CO)NC(=O)[C@H](Cc1ccc(O)cc1)NC(=O)[C@H](CO)NC(C)=O)C(=O)N[C@@H](CCC(=O)O)C(=O)N[C@@H](Cc1c[nH]cn1)C(=O)N[C@@H](Cc1ccccc1)C(=O)N[C@@H](CCCNC(=N)N)C(=O)N[C@@H](Cc1c[nH]c2ccccc12)C(=O)N[C@@H](C)C(=O)N[C@@H](CCCCN)C(=O)N1CCC[C@H]1C(=O)N[C@H](C(N)=O)C(C)C [[Ala^10]α-MSH] | 
10 | 0.17 ± 0.02 | unaltered | unaltered | unaltered | unaltered | CCCC[C@H](NC(=O)[C@H](CO)NC(=O)[C@H](Cc1ccc(O)cc1)NC(=O)[C@H](CO)NC(C)=O)C(=O)N[C@@H](CCC(=O)O)C(=O)N[C@@H](Cc1c[nH]cn1)C(=O)N[C@H](Cc1ccccc1)C(=O)N[C@@H](CCCNC(=N)N)C(=O)N[C@@H](Cc1c[nH]c2ccccc12)C(=O)NCC(=O)N[C@@H](C)C(=O)N1CCC[C@H]1C(=O)N[C@H](C(N)=O)C(C)C [[Ala^11]NDP-MSH, Ac-Ser-Tyr-Ser-Nle-Glu-His-DPhe-Arg-Trp-Gly-Ala-Pro-Val-NH2] | 
11 | 49 ± 33 |  |  |  |  | CSCC[C@H](NC(=O)[C@H](CO)NC(=O)[C@H](Cc1ccc(O)cc1)NC(=O)[C@H](CO)NC(C)=O)C(=O)N[C@@H](CCC(=O)O)C(=O)N[C@@H](Cc1c[nH]cn1)C(=O)N[C@@H](Cc1ccccc1)C(=O)N[C@@H](CCCNC(=N)N)C(=O)N[C@@H](Cc1c[nH]c2ccccc12)C(=O)NCC(=O)N[C@@H](C)C(=O)N1CCC[C@H]1C(=O)N[C@H](C(N)=O)C(C)C [[Ala^11]α-MSH] | 
12 | 0.36 ± 0.06 | 4 fold |  | 5 fold |  | CCCC[C@H](NC(=O)[C@H](CO)NC(=O)[C@H](Cc1ccc(O)cc1)NC(=O)[C@H](CO)NC(C)=O)C(=O)N[C@@H](CCC(=O)O)C(=O)N[C@@H](Cc1c[nH]cn1)C(=O)N[C@H](Cc1ccccc1)C(=O)N[C@@H](CCCNC(=N)N)C(=O)N[C@@H](Cc1c[nH]c2ccccc12)C(=O)NCC(=O)N[C@@H](CCCCN)C(=O)N[C@@H](C)C(=O)N[C@H](C(N)=O)C(C)C [[Ala^12]NDP-MSH, Ac-Ser-Tyr-Ser-Nle-Glu-His-DPhe-Arg-Trp-Gly-Lys-Ala-Val-NH2] | 
13 | 43 ± 14 |  |  |  |  | CSCC[C@H](NC(=O)[C@H](CO)NC(=O)[C@H](Cc1ccc(O)cc1)NC(=O)[C@H](CO)NC(C)=O)C(=O)N[C@@H](CCC(=O)O)C(=O)N[C@@H](Cc1c[nH]cn1)C(=O)N[C@@H](Cc1ccccc1)C(=O)N[C@@H](CCCNC(=N)N)C(=O)N[C@@H](Cc1c[nH]c2ccccc12)C(=O)NCC(=O)N[C@@H](CCCCN)C(=O)N[C@@H](C)C(=O)N[C@H](C(N)=O)C(C)C [[Ala^12]α-MSH] | fold decreased binding affinity at the mMC1R (mMC1R [1]): 10 fold
14 | 0.3 ± 0.06 | unaltered | unaltered | unaltered | unaltered | CCCC[C@H](NC(=O)[C@H](CO)NC(=O)[C@H](Cc1ccc(O)cc1)NC(=O)[C@H](CO)NC(C)=O)C(=O)N[C@@H](CCC(=O)O)C(=O)N[C@@H](Cc1c[nH]cn1)C(=O)N[C@H](Cc1ccccc1)C(=O)N[C@@H](CCCNC(=N)N)C(=O)N[C@@H](Cc1c[nH]c2ccccc12)C(=O)NCC(=O)N[C@@H](CCCCN)C(=O)N1CCC[C@H]1C(=O)N[C@@H](C)C(N)=O [[Ala^13]NDP-MSH, Ac-Ser-Tyr-Ser-Nle-Glu-His-DPhe-Arg-Trp-Gly-Lys-Pro-Ala-NH2] | 
15 | 42 ± 26 |  |  |  |  | CSCC[C@H](NC(=O)[C@H](CO)NC(=O)[C@H](Cc1ccc(O)cc1)NC(=O)[C@H](CO)NC(C)=O)C(=O)N[C@@H](CCC(=O)O)C(=O)N[C@@H](Cc1c[nH]cn1)C(=O)N[C@@H](Cc1ccccc1)C(=O)N[C@@H](CCCNC(=N)N)C(=O)N[C@@H](Cc1c[nH]c2ccccc12)C(=O)NCC(=O)N[C@@H](CCCCN)C(=O)N1CCC[C@H]1C(=O)N[C@@H](C)C(N)=O [[Ala^13]α-MSH] | 
